Experimental data taken from BindingDB's records for doi:10.1016/s0960-894x(02)00954-x (A.P.S. University, 2003).

Target: Carbonic anhydrase 2 (Homo sapiens, UniProt P00918)
Test: Inhibition of human carbonic anhydrase II (CAII)

Ki: 400 nM
Compound: NS(=O)(=O)c1cccc(N2C(=O)c3cccnc3C2=O)c1
